Reference: US20250361230A1, “LATS Inhibitors and Uses Thereof” (The USA, as Represented by the Secretary, Dept. of Heath …, priority 2022, published 2025)
Where two headings read alike, the source gives them in different places.

Legend:
[1] = molecular target: T1, AKT Kinase-NanoLuc fusion in HEK-293 cells (Homo sapiens, UniProt P31749); test: NanoBRET target engagement assay in transfected HEK-293 cells, AKT; type: cell-based
T1 construct: host or cells: HEK-293
Source text: (§1) The NanoBRET™ assay measures kinase engagement in real time in the context of the intact cell. The assay uses a Kinase-NanoLuc® fusion vector expressing a kinase protein to which a luciferase tag has been added, a cell-permeant fluorescent NanoBRET™ tracer, a NanoLuc® substrate, and an extracellular NanoLuc® inhibitor. Upon expression of the luciferase-tagged kinase, cells will produce a strong BRET signal only in the presence of the NanoBRET™ tracer. The extracellular NanoLuc® inhibitor ensures that the BRET signal observed emanates only from live cells. Because the BRET signal has tight distance constraints, addition of the test compound will decrease the BRET signal if the compound competes with the NanoBRET™ tracer for binding to the kinase domain. Under the appropriate tracer conditions established by the manufacturer, quantitative intracellular affinity and relative potency can then be determined using Mass Action model equations.
(§2) HEK-293 cells were purchased from ATCC. FuGENEHD Transfection Reagent, Kinase-NanoLuc® fusion plasmids, Transfection Carrier DNA, NanoBRET™ Tracers and dilution buffer, NanoBRET™ Nano-Glo Substrate, Extracellular NanoLuc® Inhibitor were obtained from Promega.
(§3) Assays were conducted following Promega assay protocol with some modifications as described further below. HEK-293 Cells were transiently transfected with Kinase-NanoLuc® Fusion Vector DNA by FuGENE HD Transfection Reagent. Test compounds were delivered into 384 well assay plate by Echo 550 (Labcyte Inc, Sunnyvale, CA). Transfected cells were harvested and mixed with NanoBRET™ Tracer Reagent and dispensed into 384 well plates and incubated at 37° C. in 5% CO2 cell culture incubator for 1 hour. The NanoBRET™ Nano-Glo Substrate plus Extracellular NanoLuc® Inhibitor Solution were added into the wells of the assay plate and incubated for 2-3 minutes at room temperature. The donor emission wavelength (460 nm) and acceptor emission wavelength (600 nm) were measured in the EnVision plate reader. The BRET Ratios were calculated. BRET Ratio=[(Acceptor sample÷Donor sample)−(Acceptor no-tracer control÷Donor no-tracer control)]. The IC50 values of compounds were calculated with Prism GraphPad program.
(§4) • 1. Transient Transfection of HEK-293 Cells NanoLuc® Fusion Vector DNA • 1). Cultivate HEK-293 cells (70-80% confluence) appropriately prior to assay. Trypsinize and collect HEK-293 cells. • 2). Prepare lipid: DNA complexes as follows: • a. Prepare a […] solution of DNA in Opti-MEM™ without serum that consists of the following ratios of carrier DNA and DNA encoding NanoLuc® fusion. 9.0 µg/mL of Transfection Carrier DNA, […] of NanoLuc® fusion vector DNA and 1 mL of Opti-MEM™ without phenol red. Mix thoroughly. • b. Add 30 μl of FuGENE HD Transfection Reagent into each milliliter of DNA mixture to form lipid: DNA complex. • c. Mix by inversion 10 times. • d. Incubate at ambient temperature for 20 minutes to allow complexes to form. • 3). In a sterile, conical tube, mix 1 part of lipid: DNA complex with 20 parts of HEK-293 cells in suspension. Mix gently by inversion 5 times. • 4). Dispense cells+lipid: DNA complex into a sterile tissue culture dish and incubate for 22-24 hours. • 2. Addition of Test Compounds (dry plate shooting): Each test compound is delivered from the compound source plate to the wells of 384-well white NBS plate by Echo 550. • 3. Preparation of Cells with NanoBRET™ Tracer Reagent • 1). Remove medium from dish with transfected HEK-293 cells via aspiration, trypsinize and allow cells to dissociate from the dish. • 2). Neutralize trypsin using medium containing serum and centrifuge at 200× g for 5 minutes to pellet the cells. Adjust the cell density to 2×10^5 cells/mL in Opti-MEM™ without phenol red. • 3). Prepare Complete 20× NanoBRET™ Tracer Reagent with Tracer Dilution Buffer. • 4). Dispense one part of Complete 20× NanoBRET™ Tracer Reagent to 20 parts of cells in the tube. Mix gently by inversion 10 times. • 5). […]

[2] = molecular target: T2, LATS1 Kinase-NanoLuc fusion in HEK-293 cells (Homo sapiens, UniProt O95835); test: NanoBRET target engagement assay in transfected HEK-293 cells, LATS1; type: cell-based
T2 construct: host or cells: HEK-293
T2 sequence (O95835 1-1130): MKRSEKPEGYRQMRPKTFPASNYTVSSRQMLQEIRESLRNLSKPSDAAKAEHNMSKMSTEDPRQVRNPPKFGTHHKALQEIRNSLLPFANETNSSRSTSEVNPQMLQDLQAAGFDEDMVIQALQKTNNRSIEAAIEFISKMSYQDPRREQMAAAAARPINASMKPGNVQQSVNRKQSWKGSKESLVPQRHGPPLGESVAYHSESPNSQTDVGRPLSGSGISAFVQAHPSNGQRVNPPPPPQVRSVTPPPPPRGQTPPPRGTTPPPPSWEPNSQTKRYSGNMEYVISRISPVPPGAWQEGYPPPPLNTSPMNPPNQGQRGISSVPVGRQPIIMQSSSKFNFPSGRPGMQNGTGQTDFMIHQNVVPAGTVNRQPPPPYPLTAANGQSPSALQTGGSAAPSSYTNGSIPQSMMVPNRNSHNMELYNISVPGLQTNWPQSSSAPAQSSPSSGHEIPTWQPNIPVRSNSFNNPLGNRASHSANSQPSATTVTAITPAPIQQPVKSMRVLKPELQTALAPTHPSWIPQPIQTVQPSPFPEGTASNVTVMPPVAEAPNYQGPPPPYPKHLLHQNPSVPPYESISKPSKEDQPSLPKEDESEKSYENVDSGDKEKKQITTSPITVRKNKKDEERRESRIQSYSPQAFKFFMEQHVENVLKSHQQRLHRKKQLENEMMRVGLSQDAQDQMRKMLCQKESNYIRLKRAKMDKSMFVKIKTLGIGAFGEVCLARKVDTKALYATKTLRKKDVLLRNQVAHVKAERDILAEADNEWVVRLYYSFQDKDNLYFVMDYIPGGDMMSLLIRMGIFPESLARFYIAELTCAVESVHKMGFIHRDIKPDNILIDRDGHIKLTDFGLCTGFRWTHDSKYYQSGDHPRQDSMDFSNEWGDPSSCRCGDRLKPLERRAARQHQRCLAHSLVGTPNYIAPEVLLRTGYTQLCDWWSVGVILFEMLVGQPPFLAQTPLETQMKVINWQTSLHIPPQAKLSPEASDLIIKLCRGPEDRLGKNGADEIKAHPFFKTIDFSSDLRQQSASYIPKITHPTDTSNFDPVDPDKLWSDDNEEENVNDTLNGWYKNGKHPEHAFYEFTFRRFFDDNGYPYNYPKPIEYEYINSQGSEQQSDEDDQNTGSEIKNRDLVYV
Source text: as §1, §2, §3, §4

[3] = Table 28, NanoBRET, HEK-293 cells, read-out: AKT1 (Cellular) IC50
[4] = Table 28, NanoBRET, HEK-293 cells, read-out: LATS1 (Cellular) IC50
[5] = cellular, read-out: AKT (Cellular) IC50

T1 sequence (P31749 whole entry, the tested form may be a part): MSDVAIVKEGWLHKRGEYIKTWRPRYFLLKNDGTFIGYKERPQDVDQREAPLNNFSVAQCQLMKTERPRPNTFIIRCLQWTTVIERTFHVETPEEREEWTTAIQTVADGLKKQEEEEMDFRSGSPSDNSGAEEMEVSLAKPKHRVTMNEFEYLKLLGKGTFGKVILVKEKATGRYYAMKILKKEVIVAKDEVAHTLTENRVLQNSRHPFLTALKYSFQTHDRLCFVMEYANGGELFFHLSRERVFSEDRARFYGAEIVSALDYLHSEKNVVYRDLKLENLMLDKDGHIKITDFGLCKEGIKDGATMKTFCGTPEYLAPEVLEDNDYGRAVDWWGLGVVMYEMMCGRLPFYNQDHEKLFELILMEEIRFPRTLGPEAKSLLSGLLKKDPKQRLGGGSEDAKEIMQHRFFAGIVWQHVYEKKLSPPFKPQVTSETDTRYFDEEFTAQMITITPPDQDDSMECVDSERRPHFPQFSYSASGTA

| SMILES | IC50 [1, 3] [µM] | IC50 [2, 4] [µM] | further results |
| --- | --- | --- | --- |
| Cc1cc(-c2ccnc3[nH]cc(F)c23)cc(F)c1[C@@]1(O)[C@H](C)CN(C2CCS(=O)(=O)CC2)C[C@@H]1C [Compound 57, 4-((3R,4s,5S)-4-(2-fluoro-4-(3-fluoro-1H-pyrrolo[2,3-b]pyridin-4-yl)-6-methylphenyl)-4-hydroxy-3,5-dimethylpiperidin-1-yl)tetrahydro-2H-thiopyran 1,1-dioxide] | 31.9 | 0.0369 | – |
| Cc1cc(-c2ccnc3[nH]cc(F)c23)ccc1[C@@]1(O)[C@H](C)CN(C2COC2)C[C@@H]1C [Compound 24, (3S,4s,5R)-4-(4-(3-fluoro-1H-pyrrolo[2,3-b]pyridin-4-yl)-2-methylphenyl)-3,5-dimethyl-1-(oxetan-3-yl)piperidin-4-ol] | 56.2 | 0.127 | – |
| C[C@@H]1CNC[C@H](C)[C@@]1(O)c1ccc(-c2ccnc3[nH]cc(F)c23)cc1 [Compound 2, (3R,4s,5S)-4-(4-(3-fluoro-1H-pyrrolo[2,3-b]pyridin-4-yl)phenyl)-3,5-dimethylpiperidin-4-ol] | > 50 | 0.55 | – |
| C[C@@H]1CN(C)C[C@H](C)[C@@]1(O)c1ccc(-c2ccnc3[nH]cc(F)c23)nc1 [Compound 41, (3R,4s,5S)-4-(6-(3-fluoro-1H-pyrrolo[2,3-b]pyridin-4-yl)pyridin-3-yl)-1,3,5-trimethylpiperidin-4-ol] | 8.64 | 0.115 | – |
| NCC(O)(c1ccc(Cl)cc1)c1ccc(-c2ccnc3[nH]cc(Br)c23)nc1 (stereo not drawn) [Compound 1011, 2-amino-1-(6-(3-bromo-1H-pyrrolo[2,3-b]pyridin-4-yl)pyridin-3-yl)-1-(4-chlorophenyl)ethan-1-ol] | – | – | IC50 ([1]; Table 32, NanoBRET, HEK-293 cells, read-out: AKT (Cellular) IC50): 0.0763 µM; IC50 ([2]; Table 32, NanoBRET, HEK-293 cells, read-out: LATS1 (Cellular) IC50): 0.024 µM |
| Fc1c[nH]c2nccc(-c3ccc(C4CCNCC4)cc3)c12 [Compound 169, 3-fluoro-4-(4-(piperidin-4-yl)phenyl)-1H-pyrrolo[2,3-b]pyridine] | 13.3 | 25.8 | – |
| C[C@@H]1CN(C)C[C@H](C)[C@@]1(O)c1ccc(-c2ccnc3[nH]cc(F)c23)cc1 [Compound 39, (3R,4s,5S)-4-(4-(3-fluoro-1H-pyrrolo[2,3-b]pyridin-4-yl)phenyl)-1,3,5-trimethylpiperidin-4-ol] | > 50 | 19 | – |
| Cc1cc(-c2ccnc3[nH]cc(F)c23)ccc1[C@@]1(O)[C@H](C)CN(C(=O)CN)C[C@@H]1C [Compound 60, 2-amino-1-((3R,4s,5S)-4-(4-(3-fluoro-1H-pyrrolo[2,3-b]pyridin-4-yl)-2-methylphenyl)-4-hydroxy-3,5-dimethylpiperidin-1-yl)ethan-1-one] | 9.35 | 0.0215 | – |
| Cc1cc(-c2ccnc3[nH]cc(C#N)c23)cc(F)c1[C@@]1(O)[C@H](C)CNC[C@@H]1C [Compound 2024, 4-(3-fluoro-4-((3S,4s,5R)-4-hydroxy-3,5-dimethylpiperidin-4-yl)-5-methylphenyl)-1H-pyrrolo[2,3-b]pyridine-3-carbonitrile] | – | – | IC50 [1, 5]: > 50 µM; IC50 ([2]; cellular): 0.0379 µM |
| Cc1cc(-c2ccnc3[nH]cc(C#N)c23)cc(F)c1[C@@]1(O)[C@H](C)CN(C(=O)C(N)C(F)(F)F)C[C@@H]1C (stereo partly drawn) [Compound 2017, 4-(4-((3S,4s,5R)-1-(2-amino-3,3,3-trifluoropropanoyl)-4-hydroxy-3,5-dimethylpiperidin-4-yl)-3-fluoro-5-methylphenyl)-1H-pyrrolo[2,3-b]pyridine-3-carbonitrile] | – | – | IC50 [1, 5]: > 50 µM; IC50 ([2]; cellular): < 0.0025 µM |
| Cc1cc(-c2ccnc3[nH]cc(F)c23)cc(F)c1[C@@]1(O)[C@H](C)CN(C)C[C@@H]1C [Compound 304, (3S,4s,5R)-4-(2-fluoro-4-(3-fluoro-1H-pyrrolo[2,3-b]pyridin-4-yl)-6-methylphenyl)-1,3,5-trimethylpiperidin-4-ol] | 26 | 0.0417 | – |
| Cc1cc(-c2ccnc3[nH]cc(F)c23)ncc1[C@@]1(O)[C@H](C)CN(C2CCC2)C[C@@H]1C [Compound 48, (3R,4s,5S)-1-cyclobutyl-4-(6-(3-fluoro-1H-pyrrolo[2,3-b]pyridin-4-yl)-4-methylpyridin-3-yl)-3,5-dimethylpiperidin-4-ol] | – | 12.6 | – |
| C[C@@H]1CNC[C@H](C)[C@@]1(O)c1c(F)cc(-c2ccnc3[nH]cc(F)c23)cc1F [Compound 13] | 16.1 | 1.45 | – |

Further lines, with some results ahead:

| IC50 [1, 3] [µM] | IC50 [2, 4] [µM] | SMILES | further results |
| --- | --- | --- | --- |
| > 50 | 66.8 | COC(=O)c1c[nH]c2nccc(-c3ccc(CN)cc3)c12 [Compound 223, methyl 4-(4-(aminomethyl)phenyl)-1H-pyrrolo[2,3-b]pyridine-3-carboxylate] | – |
| 19.2 | 0.043 | Cc1cc(-c2ccnc3[nH]cc(F)c23)cc(F)c1[C@@]1(O)[C@H](C)CN(C(=O)[C@@H](CO)N(C)C)C[C@@H]1C [Compound 313, (R)-2-(dimethylamino)-1-((3S,4S,5R)-4-(2-fluoro-4-(3-fluoro-1H-pyrrolo[2,3-b]pyridin-4-yl)-6-methylphenyl)-4-hydroxy-3,5-dimethylpiperidin-1-yl)-3-hydroxypropan-1-one] | – |
| > 50 | 34.8 | NCc1ccc(-c2ccnc3[nH]ccc23)cc1C(F)(F)F [Compound 284, (4-(1H-pyrrolo[2,3-b]pyridin-4-yl)-2-(trifluoromethyl)phenyl) methanamine] | – |
| 4.14 | 2.83 | NCc1ccc(-c2ccnc3[nH]cc(Cl)c23)cc1 [Compound 276, (4-(3-chloro-1H-pyrrolo[2,3-b]pyridin-4-yl)phenyl) methanamine] | – |
